Measured values: ChEMBL document CHEMBL1201862, “PubChem BioAssay data set” (2004)
Blank lines part the entries; values can stand above or below the compound they belong to. The source made the active and inactive calls. Unless noted, the calls are words filed in the database; no cut-off is given here.

How the values were obtained:
HeLa = assay: toxicity to human HeLa cells – cell-based, 48 h, plate reader, cherry-picks, cytotoxicity control, dose response (AID 504942); format: functional
[1] = biological target: T1, Acyl-homoserine lactone acylase PvdQ (Pseudomonas aeruginosa (strain LESB58), UniProt Q9I194); assay: PvdQ acylase enzyme activity blockers – biochemical, fluorescence, plate reader and imaging, cherry-picks, dose response (AID 493231)
T1 sequence (Q9I194 whole entry): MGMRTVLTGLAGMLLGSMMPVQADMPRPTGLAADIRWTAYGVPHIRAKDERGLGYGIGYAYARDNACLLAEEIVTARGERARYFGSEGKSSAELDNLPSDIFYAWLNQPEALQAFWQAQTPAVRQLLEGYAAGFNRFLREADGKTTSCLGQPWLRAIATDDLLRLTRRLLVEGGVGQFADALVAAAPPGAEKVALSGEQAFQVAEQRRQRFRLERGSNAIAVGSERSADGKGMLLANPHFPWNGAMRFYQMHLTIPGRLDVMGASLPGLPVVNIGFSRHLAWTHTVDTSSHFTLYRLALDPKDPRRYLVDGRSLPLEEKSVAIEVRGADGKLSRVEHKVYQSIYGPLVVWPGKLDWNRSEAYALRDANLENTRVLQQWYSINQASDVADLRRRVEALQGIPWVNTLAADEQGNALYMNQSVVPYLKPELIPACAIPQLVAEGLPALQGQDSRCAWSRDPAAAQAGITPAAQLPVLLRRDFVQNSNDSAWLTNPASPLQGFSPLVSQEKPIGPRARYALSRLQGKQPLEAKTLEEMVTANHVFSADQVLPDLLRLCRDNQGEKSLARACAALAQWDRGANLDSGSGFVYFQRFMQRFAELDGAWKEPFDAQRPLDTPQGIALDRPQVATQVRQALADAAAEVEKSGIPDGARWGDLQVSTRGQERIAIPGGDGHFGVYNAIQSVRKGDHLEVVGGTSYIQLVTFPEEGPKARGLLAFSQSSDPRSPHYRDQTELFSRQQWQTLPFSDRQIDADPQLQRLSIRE

[2] = biological target: Voltage-dependent T-type calcium channel subunit alpha-1H (Homo sapiens, UniProt O95180); format: functional;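 further: channel activity triggered by adding a high calcium stimulation buffer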
[3] = biological target: T2, Endoribonuclease toxin MazF (Escherichia coli K-12, UniProt P0AE70); assay: activation of MazEF endoribonuclease cleavage – biochemical, fluorescence, single-stranded RNA substrate, uHTS hits, dose response (AID 588481); format: functional
[4] = biological target: T3, Zinc finger protein mex-5 (Caenorhabditis elegans, UniProt Q9XUB2); assay: potency of MEX-5 RNA-binding blockers – biochemical, C. elegans, fluorescence polarization, dose response (AID 1960)
T3 sequence (Q9XUB2 whole entry): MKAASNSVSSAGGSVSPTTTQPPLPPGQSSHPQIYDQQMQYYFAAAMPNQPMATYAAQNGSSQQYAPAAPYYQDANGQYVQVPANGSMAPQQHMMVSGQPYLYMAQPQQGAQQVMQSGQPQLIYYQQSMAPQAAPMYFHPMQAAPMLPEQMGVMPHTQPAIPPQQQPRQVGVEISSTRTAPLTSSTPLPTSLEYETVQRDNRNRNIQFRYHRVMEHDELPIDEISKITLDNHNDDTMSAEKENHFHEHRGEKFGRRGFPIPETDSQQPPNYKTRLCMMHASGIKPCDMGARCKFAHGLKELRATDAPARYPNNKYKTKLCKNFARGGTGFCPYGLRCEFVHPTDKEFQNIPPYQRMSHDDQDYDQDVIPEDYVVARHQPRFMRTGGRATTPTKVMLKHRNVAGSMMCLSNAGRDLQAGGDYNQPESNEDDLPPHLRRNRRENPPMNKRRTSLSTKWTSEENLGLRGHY

Ephrin type-A receptor 4 = Ephrin type-A receptor 4 (Mus musculus, UniProt Q03137); assay: EphA4 ligand-binding antagonists – biochemical, colorimetric, mouse EphA4, primary screen (AID 689); format: functional
[5] = biological target: T2, Endoribonuclease toxin MazF; assay: substrate-only fluorescence increase artefacts – biochemical, single-stranded RNase substrate, counter-screen for MazEF activator project, dose response (AID 588502); format: functional
[6] = biological target: T4, Corticotropin-releasing factor receptor 2/Corticotropin-releasing factor-binding protein (Homo sapiens, UniProt P24387+Q13324); assay: activators of CRF receptor 2 with binding protein – uHTS hits, confirmation (AID 602473); format: functional; details: read-out: EC50_Mean
T4 sequence (Q13324 whole entry): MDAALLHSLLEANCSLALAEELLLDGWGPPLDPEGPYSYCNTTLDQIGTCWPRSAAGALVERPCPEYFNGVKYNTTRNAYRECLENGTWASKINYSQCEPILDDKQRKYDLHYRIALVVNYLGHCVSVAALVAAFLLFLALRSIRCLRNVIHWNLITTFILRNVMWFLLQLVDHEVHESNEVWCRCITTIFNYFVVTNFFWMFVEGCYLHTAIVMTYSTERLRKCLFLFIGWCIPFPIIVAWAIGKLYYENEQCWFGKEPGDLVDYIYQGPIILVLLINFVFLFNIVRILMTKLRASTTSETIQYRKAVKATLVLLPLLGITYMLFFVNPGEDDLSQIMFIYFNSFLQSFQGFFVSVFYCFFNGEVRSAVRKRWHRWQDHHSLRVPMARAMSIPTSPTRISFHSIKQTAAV
T4 sequence (P24387 whole entry): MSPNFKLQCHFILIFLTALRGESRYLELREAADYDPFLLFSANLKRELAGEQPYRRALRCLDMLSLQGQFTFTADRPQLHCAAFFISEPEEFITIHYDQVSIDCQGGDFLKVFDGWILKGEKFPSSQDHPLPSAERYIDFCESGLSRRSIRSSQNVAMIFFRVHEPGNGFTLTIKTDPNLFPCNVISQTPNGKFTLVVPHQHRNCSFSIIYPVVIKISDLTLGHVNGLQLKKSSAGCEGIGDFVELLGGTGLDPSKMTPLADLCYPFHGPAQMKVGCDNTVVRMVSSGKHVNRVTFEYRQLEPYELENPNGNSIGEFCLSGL

[7] = biological target: T5, RNA-binding protein pos-1 (Caenorhabditis elegans, UniProt G5EF15); assay: disruptors of C. elegans POS-1 RNA interaction – biochemical, fluorescence polarization, dose response (AID 1964);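 further: purified POS-1 fused to maltose binding protein made in E. coli; potency of compounds blocking POS-1 binding to fluorescent RNA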
T5 sequence (G5EF15 whole entry): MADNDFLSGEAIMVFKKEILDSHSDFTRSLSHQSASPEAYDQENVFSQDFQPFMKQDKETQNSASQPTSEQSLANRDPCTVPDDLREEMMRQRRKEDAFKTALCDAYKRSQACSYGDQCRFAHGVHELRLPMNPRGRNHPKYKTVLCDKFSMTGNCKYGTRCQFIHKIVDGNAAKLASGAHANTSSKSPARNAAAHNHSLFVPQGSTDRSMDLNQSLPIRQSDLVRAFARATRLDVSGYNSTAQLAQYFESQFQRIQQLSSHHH

INS1 [8] = assay: beta-cell survival under cytokine stress – INS-1E, ATP luminescence, dry powder, dose response (AID 488844); format: functional, cell-based; details: Rattus norvegicus
INS1 [9] = assay: INS-1E mitochondrial potential rescue under cytokines – cell-based, JC-1 fluorescence ratio, dry powder, dose response (AID 488931); format: functional; details: Rattus norvegicus
[10] = biological target: T6, Short transient receptor potential channel 4 (Mus musculus, UniProt Q9QUQ5); assay: mouse TRPC4 block via Gq-coupled stimulation – cell-based, acetylcholine stimulus, HEK293 TRPC4, Fluo-4, SAR follow-up (AID 492996); format: functional
T6 sequence (Q9QUQ5 whole entry): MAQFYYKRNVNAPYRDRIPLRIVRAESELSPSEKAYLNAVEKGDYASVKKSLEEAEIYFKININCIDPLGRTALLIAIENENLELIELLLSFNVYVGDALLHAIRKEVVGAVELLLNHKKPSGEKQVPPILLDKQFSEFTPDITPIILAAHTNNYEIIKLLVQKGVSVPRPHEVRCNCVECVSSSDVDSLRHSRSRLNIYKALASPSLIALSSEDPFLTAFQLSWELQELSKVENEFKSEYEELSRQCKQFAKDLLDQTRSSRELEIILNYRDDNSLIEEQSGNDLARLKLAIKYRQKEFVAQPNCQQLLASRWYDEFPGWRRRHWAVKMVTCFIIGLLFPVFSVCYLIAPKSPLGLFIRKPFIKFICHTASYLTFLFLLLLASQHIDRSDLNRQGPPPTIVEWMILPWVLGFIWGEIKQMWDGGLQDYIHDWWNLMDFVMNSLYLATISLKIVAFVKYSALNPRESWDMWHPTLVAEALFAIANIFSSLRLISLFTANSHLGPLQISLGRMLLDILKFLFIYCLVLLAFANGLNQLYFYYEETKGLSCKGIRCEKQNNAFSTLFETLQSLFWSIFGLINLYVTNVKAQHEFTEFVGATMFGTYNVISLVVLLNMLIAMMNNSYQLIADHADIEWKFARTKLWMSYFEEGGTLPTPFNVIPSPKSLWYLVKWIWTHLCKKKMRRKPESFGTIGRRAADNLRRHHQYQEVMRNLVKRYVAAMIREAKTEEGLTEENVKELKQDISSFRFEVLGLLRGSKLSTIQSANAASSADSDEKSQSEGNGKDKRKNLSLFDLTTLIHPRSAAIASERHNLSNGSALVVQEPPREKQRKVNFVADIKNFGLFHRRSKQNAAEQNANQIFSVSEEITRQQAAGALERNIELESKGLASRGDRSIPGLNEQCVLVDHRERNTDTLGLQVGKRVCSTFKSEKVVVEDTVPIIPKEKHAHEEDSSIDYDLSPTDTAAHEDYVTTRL

[11] = biological target: T6, Short transient receptor potential channel 4; assay: SAR Analysis for the identification of selective inhibits of the transient receptor potential cation channel C4 (TRPC4): Automated Electrophysiology. [Related pubchem assays (depositor defined):AID2256]; format: functional
[12] = biological target: T6, Short transient receptor potential channel 4; assay: potency of mouse TRPC4 calcium flux blockers – cell-based, HEK293 TRPC4/mu-opioid, DAMGO stimulus, Fluo-4, dose response (AID 492994); format: functional
[13] = biological target: T6, Short transient receptor potential channel 4; assay: SAR Analysis for the identification of selective inhibitors of the transient receptor potential cation channel C4 (TRPC4): TRPC4 Serotonin Receptor CRC MPD assay. [Related pubchem assays (depositor defined):AID2247, AID2256]; format: functional

T2 sequence (P0AE70 whole entry): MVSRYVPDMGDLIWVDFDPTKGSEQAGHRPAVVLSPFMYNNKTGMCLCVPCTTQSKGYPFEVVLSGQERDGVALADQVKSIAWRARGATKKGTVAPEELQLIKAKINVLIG
Voltage-dependent T-type calcium channel subunit alpha-1H, sequence (O95180 whole entry): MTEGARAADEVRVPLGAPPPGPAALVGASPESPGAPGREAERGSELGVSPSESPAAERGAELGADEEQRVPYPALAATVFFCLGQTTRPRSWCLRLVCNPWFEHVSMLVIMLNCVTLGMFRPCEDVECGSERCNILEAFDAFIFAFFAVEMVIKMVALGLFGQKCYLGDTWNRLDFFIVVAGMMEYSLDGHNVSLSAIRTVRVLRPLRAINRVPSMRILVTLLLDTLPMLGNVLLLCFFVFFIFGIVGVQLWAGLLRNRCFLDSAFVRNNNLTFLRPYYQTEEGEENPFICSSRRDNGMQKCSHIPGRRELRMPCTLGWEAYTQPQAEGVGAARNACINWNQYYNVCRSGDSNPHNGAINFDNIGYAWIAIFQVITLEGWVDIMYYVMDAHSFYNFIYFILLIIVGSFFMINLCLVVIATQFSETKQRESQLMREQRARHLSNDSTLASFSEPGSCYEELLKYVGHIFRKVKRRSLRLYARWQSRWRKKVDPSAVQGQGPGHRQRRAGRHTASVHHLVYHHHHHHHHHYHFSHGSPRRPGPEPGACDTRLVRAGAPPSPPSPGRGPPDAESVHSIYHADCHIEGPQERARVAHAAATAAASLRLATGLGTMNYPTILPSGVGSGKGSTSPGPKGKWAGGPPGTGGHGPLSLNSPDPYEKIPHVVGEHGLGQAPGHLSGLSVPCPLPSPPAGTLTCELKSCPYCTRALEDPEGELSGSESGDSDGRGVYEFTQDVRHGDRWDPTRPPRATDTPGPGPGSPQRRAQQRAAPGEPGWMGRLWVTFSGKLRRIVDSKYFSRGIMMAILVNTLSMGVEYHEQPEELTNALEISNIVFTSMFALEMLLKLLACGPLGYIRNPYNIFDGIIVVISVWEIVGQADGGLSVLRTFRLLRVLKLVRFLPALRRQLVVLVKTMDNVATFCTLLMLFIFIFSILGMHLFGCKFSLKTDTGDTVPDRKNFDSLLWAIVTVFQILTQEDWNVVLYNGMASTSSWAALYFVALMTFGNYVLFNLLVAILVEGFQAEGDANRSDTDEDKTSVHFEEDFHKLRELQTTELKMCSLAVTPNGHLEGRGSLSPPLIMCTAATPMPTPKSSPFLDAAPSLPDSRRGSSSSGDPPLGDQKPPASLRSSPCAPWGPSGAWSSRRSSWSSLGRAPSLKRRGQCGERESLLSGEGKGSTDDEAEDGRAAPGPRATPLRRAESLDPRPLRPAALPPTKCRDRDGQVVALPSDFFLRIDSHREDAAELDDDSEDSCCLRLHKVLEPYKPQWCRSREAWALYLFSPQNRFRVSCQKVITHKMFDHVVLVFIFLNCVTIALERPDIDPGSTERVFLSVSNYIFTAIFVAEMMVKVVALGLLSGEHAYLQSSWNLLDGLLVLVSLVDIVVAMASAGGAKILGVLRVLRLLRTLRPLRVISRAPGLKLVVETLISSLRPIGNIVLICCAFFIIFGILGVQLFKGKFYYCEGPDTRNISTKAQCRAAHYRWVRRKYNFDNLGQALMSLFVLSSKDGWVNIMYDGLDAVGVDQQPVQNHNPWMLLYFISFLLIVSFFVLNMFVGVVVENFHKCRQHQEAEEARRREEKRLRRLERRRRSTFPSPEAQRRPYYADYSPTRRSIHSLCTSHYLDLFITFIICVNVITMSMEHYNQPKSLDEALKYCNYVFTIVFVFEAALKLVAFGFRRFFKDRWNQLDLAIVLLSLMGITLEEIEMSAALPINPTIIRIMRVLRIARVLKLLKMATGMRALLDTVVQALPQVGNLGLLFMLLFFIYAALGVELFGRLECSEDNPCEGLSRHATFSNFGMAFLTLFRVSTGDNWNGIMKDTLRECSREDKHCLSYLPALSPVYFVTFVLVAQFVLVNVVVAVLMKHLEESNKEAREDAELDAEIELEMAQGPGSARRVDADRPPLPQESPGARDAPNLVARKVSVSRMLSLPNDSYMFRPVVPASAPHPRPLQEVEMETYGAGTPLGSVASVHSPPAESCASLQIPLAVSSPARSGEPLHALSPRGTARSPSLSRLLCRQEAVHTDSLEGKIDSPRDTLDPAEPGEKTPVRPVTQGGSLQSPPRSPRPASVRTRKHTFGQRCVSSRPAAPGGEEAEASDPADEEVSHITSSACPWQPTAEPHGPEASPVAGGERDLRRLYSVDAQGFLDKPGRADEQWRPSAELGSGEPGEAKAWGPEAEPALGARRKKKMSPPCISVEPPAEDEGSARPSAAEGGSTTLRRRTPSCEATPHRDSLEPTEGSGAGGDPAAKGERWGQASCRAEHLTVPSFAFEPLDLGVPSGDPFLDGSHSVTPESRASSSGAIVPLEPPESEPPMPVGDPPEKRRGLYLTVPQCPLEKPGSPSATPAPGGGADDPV
Ephrin type-A receptor 4, sequence (Q03137 whole entry): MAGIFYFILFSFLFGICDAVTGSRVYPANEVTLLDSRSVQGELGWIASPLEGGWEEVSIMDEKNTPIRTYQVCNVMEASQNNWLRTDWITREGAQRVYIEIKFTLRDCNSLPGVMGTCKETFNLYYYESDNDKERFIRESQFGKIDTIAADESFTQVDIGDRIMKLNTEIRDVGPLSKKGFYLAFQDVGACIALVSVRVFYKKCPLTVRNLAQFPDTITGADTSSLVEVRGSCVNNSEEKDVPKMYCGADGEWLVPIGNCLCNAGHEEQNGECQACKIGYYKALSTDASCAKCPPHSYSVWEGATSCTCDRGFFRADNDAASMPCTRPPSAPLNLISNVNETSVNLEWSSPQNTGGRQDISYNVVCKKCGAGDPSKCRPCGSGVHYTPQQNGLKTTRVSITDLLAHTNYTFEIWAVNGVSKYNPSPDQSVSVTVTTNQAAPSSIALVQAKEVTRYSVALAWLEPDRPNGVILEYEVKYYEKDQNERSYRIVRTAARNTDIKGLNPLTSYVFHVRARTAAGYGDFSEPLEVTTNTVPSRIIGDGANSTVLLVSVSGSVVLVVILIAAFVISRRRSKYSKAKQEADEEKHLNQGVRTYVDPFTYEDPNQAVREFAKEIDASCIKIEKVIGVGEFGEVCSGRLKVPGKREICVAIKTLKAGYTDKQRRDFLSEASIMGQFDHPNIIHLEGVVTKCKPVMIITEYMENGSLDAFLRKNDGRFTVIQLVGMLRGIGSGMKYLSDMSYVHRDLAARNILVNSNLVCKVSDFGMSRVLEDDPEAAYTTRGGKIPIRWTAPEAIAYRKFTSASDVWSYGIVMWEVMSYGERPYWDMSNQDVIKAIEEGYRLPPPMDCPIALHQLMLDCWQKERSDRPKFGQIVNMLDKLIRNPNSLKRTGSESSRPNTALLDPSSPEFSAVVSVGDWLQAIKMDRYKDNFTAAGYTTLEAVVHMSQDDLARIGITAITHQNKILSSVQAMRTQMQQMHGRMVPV

SMILES: Cn1cccc1C(=O)OCc1cc(-c2ccco2)on1
- AC50 (HeLa): > 380 µM (inactive)
- AC50 [1]: 11.1 µM (active)

SMILES: CC(C)(C)C(=O)c1sc2nc(-c3cccs3)cc(C(F)(F)F)c2c1N
- EC50 [2]: 2.59 µM (active)
- EC50 [3]: > 99 µM (inactive)
- EC50 [4]: > 300 µM (inconclusive)
- IC50 (Ephrin type-A receptor 4): 9.9 µM (active)
- EC50 [5]: > 99 µM (inactive)
- EC50 [6]: 18 µM (active)
- EC50 [7]: > 300 µM (not active)

SMILES: COc1ccc(S(=O)(=O)N(C)C[C@@H]2Oc3c(NC(=O)Nc4cccc5ccccc45)cccc3C(=O)N(C(C)C)C[C@H]2C)cc1
- AC50 (INS1 [8]): 63.7 µM (active)
- AC50 (INS1 [9]): 24 µM (active)

- IC50 [10]: 20.7 µM (active)
- IC50 [11]: 3.14 µM (active)
- IC50 [12]: 7.24 µM (active)
- IC50 [13]: 5.47 µM (active)
SMILES: Cc1cc(N2CCC(C)CC2)nc2ccccc12
